The text below walks through data of patent publication US10004701B2, “Methods and compositions for treating infection” (UNIVERSITY OF ROCHESTER, priority 2012, dated 2018).

Common to all, as to experiment: AK assay 384-well format, Prestwick library screening
For assay [1], the system named is E. faecium. It counts as cell-based, Enterococcus faecium. Conditions: 50 μM final drug concentration; for fold induction at 50 µM: Enterococcus faecium, 3 h.
The subject of assay [2] is E. cloacae. It counts as cell-based, Enterobacter cloacae. Conditions: 50 μM final drug concentration; for fold induction at 50 µM: Enterobacter cloacae, 3 h.
Assay [3] has as its system S. aureus strain USA300-0114. It counts as cell-based, Staphylococcus aureus. Conditions: 50 μM final drug concentration; for fold induction at 50 µM: Staphylococcus aureus, USA300, 3 h.
Assay [4] concerns P. aeruginosa. It counts as cell-based, Pseudomonas aeruginosa. The settings on record: 50 μM final drug concentration; for fold induction at 50 µM: Pseudomonas aeruginosa, 3 h.
In assay [5] the test system is K. pneumoniae. It counts as cell-based, Klebsiella pneumoniae. Conditions: 50 μM final drug concentration; for fold induction at 50 µM: Klebsiella pneumoniae, 3 h.
Assay [6] has as its system A. baumannii strain 98-37-09. It counts as cell-based, Acinetobacter baumannii. Conditions: 50 μM final drug concentration; for fold induction at 50 µM: Acinetobacter baumannii, 983709, 3 h.
The subject of assay [7] is E. coli. It counts as cell-based, Escherichia coli. The settings on record: 50 μM final drug concentration; for fold induction at 50 µM: Escherichia coli, 3 h.
[8] abbreviates: planktonic E. faecium, positive cutoff 3-fold increase, read-out: AK-based Prestwick library screening result, E. faecium (fold increase in extracellular AK activity).
Setting [9] is: planktonic E. cloacae, positive cutoff 3-fold increase, read-out: AK-based Prestwick library screening result, E. cloacae (fold increase in extracellular AK activity).
The mark [10] stands for this setting: planktonic S. aureus, positive cutoff 3-fold increase, read-out: AK-based Prestwick library screening result, S. aureus (fold increase in extracellular AK activity).
[11] abbreviates: planktonic P. aeruginosa, positive cutoff 3-fold increase, read-out: AK-based Prestwick library screening result, P. aeruginosa (fold increase in extracellular AK activity).
[12] abbreviates: planktonic K. pneumoniae, positive cutoff 3-fold increase, read-out: AK-based Prestwick library screening result, K. pneumoniae (fold increase in extracellular AK activity).
The mark [13] stands for this setting: planktonic A. baumannii, positive cutoff 3-fold increase, read-out: AK-based Prestwick library screening result, A. baumannii (fold increase in extracellular AK activity).
Setting [14] is: planktonic E. coli, positive cutoff 3-fold increase, read-out: AK-based Prestwick library screening result, E. coli (fold increase in extracellular AK activity).
[15] abbreviates: cutoff for positive-scoring molecules 3-fold increase, read-out: AK-based Prestwick Library Screening Results, E. faecium (fold increase in extracellular AK activity).
Setting [16] is: cutoff for positive-scoring molecules 3-fold increase, read-out: AK-based Prestwick Library Screening Results, E. cloacae (fold increase in extracellular AK activity).
[17] abbreviates: cutoff for positive-scoring molecules 3-fold increase, read-out: AK-based Prestwick Library Screening Results, S. aureus (fold increase in extracellular AK activity).
[18] abbreviates: cutoff for positive-scoring molecules 3-fold increase, read-out: AK-based Prestwick Library Screening Results, P. aeruginosa (fold increase in extracellular AK activity).
Setting [19] is: cutoff for positive-scoring molecules 3-fold increase, read-out: AK-based Prestwick Library Screening Results, K. pneumoniae (fold increase in extracellular AK activity).
The mark [20] stands for this setting: cutoff for positive-scoring molecules 3-fold increase, read-out: AK-based Prestwick Library Screening Results, A. baumannii (fold increase in extracellular AK activity).
Where [21] appears, read: cutoff for positive-scoring molecules 3-fold increase, read-out: AK-based Prestwick Library Screening Results, E. coli (fold increase in extracellular AK activity).
Where [22] appears, read: cutoff for positive-scoring molecules 3-fold increase.

Counter-ions that a name gives are not always drawn. Like-named read-outs stand apart in the source and are kept apart here.

In the case of `CC/C(=C(\c1ccccc1)c1ccc(OCCN(C)C)cc1)c1ccccc1` [Tamoxifen citrate], the fold induction at 50 µM in assay [1] (planktonic E. faecium, 384-well, cutoff for positive-scoring molecules 3-fold increase, read-out: AK-based Prestwick Library Screening Results: E. faecium (increase in extracellular AK activity)) was 4; in assay [2] (planktonic E. cloacae, 384-well, cutoff for positive-scoring molecules 3-fold increase, read-out: AK-based Prestwick Library Screening Results: E. cloacae (increase in extracellular AK activity)) it was 1.3; in assay [3] (planktonic S. aureus, 384-well, cutoff for positive-scoring molecules 3-fold increase, read-out: AK-based Prestwick Library Screening Results: S. aureus (increase in extracellular AK activity)) it was 2.1; in assay [4] (planktonic P. aeruginosa, 384-well, cutoff for positive-scoring molecules 3-fold increase, read-out: AK-based Prestwick Library Screening Results: P. aeruginosa (increase in extracellular AK activity)), 1.4; in assay [5] (planktonic K. pneumoniae, 384-well, cutoff for positive-scoring molecules 3-fold increase, read-out: AK-based Prestwick Library Screening Results: K. pneumoniae (increase in extracellular AK activity)), 2.1; in assay [6] (planktonic A. baumannii, 384-well, cutoff for positive-scoring molecules 3-fold increase, read-out: AK-based Prestwick Library Screening Results: A. baumannii (increase in extracellular AK activity)) it was 6.6. Moreover, the fold induction at 50 µM in assay [7] (planktonic E. coli, 384-well, cutoff for positive-scoring molecules 3-fold increase, read-out: AK-based Prestwick Library Screening Results: E. coli (increase in extracellular AK activity)) was found to be 1.9.

As to `COc1ncnc(NS(=O)(=O)c2ccc(N)cc2)c1OC` [Sulfadoxine], the fold induction at 50 µM stood at 1 in assay [1] (setting [8]); 1.3 in assay [2] (setting [9]); 0.9 in assay [3] (setting [10]); 1 in assay [4] (setting [11]); 1 in assay [5] (setting [12]); 2.9 in assay [6] (setting [13]). Further, the fold induction at 50 µM in assay [7] (setting [14]) was 1.

Turning to `CCN1CCC[C@H]1CNC(=O)c1c(OC)ccc(Br)c1OC` [Remoxipride Hydrochloride], the fold induction at 50 µM in assay [1] (setting [15]) came out at 0.9; in assay [2] (setting [16]) it was 0.8; in assay [3] (setting [17]), 0.6; in assay [4] (setting [18]), 0.7; in assay [5] (setting [19]) it was 0.6; in assay [6] (setting [20]), 0.7. The fold induction at 50 µM in assay [7] (setting [21]) is 0.7.

Regarding `C[C@H]1CC[C@]2(NC1)O[C@H]1C[C@H]3[C@@H]4CC[C@H]5C[C@@H](O[C@@H]6O[C@H](CO)[C@H](O[C@@H]7O[C@H](CO)[C@@H](O)[C@H](O[C@@H]8OC[C@@H](O)[C@H](O)[C@H]8O)[C@H]7O[C@@H]7O[C@H](CO)[C@@H](O)[C@H](O)[C@H]7O)[C@H](O)[C@H]6O)CC[C@]5(C)[C@H]4CC[C@]3(C)[C@H]1[C@@H]2C` [Tomatine], the fold induction at 50 µM in assay [1] (384-well format, […], read-out: AK-based Prestwick Library Screening Results, E. faecium (increase in extracellular AK activity)) was 1; in assay [2] (384-well format, […], read-out: AK-based Prestwick Library Screening Results, E. cloacae (increase in extracellular AK activity)) it was 1.1; in assay [3] (384-well format, […], read-out: AK-based Prestwick Library Screening Results, S. aureus (increase in extracellular AK activity)), 0.8; in assay [4] (384-well format, […], read-out: AK-based Prestwick Library Screening Results, P. aeruginosa (increase in extracellular AK activity)), 0.8; in assay [5] (384-well format, […], read-out: AK-based Prestwick Library Screening Results, K. pneumoniae (increase in extracellular AK activity)), 0.7; in assay [6] (384-well format, […], read-out: AK-based Prestwick Library Screening Results, A. baumannii (increase in extracellular AK activity)), 1. For the same molecule, in assay [7] (384-well format, […], read-out: AK-based Prestwick Library Screening Results, E. coli (increase in extracellular AK activity)), the fold induction at 50 µM came to 0.9.

With `COc1ccc2c(OC)c3ccoc3nc2c1OC` [Skimmianine], the fold induction at 50 µM worked out at 0.6 in assay [1] (planktonic, […], read-out: AK-based Prestwick Library Screening Results, E. faecium (fold increase in extracellular AK activity)); 1.1 in assay [2] (planktonic, […], read-out: AK-based Prestwick Library Screening Results, E. cloacae (fold increase in extracellular AK activity)); 0.6 in assay [3] (planktonic, […], read-out: AK-based Prestwick Library Screening Results, S. aureus (fold increase in extracellular AK activity)); 0.6 in assay [4] (planktonic, […], read-out: AK-based Prestwick Library Screening Results, P. aeruginosa (fold increase in extracellular AK activity)); 0.5 in assay [5] (planktonic, […], read-out: AK-based Prestwick Library Screening Results, K. pneumoniae (fold increase in extracellular AK activity)); 0.5 in assay [6] (planktonic, […], read-out: AK-based Prestwick Library Screening Results, A. baumannii (fold increase in extracellular AK activity)). The fold induction at 50 µM in assay [7] (planktonic, […], read-out: AK-based Prestwick Library Screening Results, E. coli (fold increase in extracellular AK activity)) came out at 0.6.

In the case of `COc1cc2ccc(=O)oc2cc1O` [Scopoletin], the fold induction at 50 µM in assay [1] (setting [15]) came out at 0.9; in assay [2] (setting [16]), 0.3; in assay [3] (setting [17]), 0.3; in assay [4] (setting [18]), 0.4; in assay [5] (setting [19]), 0.4; in assay [6] (setting [20]) it was 0.4. The fold induction at 50 µM in assay [7] (setting [21]) was 0.4.

In the case of `CC1CS(=O)(=O)CCN1/N=C/c1ccc([N+](=O)[O-])o1` (stereo not drawn) [Nifurtimox], the fold induction at 50 µM was determined as 1 in assay [1] (setting [8]); 1.3 in assay [2] (setting [9]); 0.8 in assay [3] (setting [10]); 1.1 in assay [4] (setting [11]); 1.2 in assay [5] (setting [12]); 1.5 in assay [6] (setting [13]). For the same molecule, the fold induction at 50 µM in assay [7] (setting [14]) came out at 1.1.

For the molecule Tyloxapol, in assay [1] (setting [22]), the “AK-based Prestwick Library Screening Results, E. faecium (fold increase in extracellular AK activity)” value was 1.0. Moreover, the “AK-based Prestwick Library Screening Results, E. cloacae (fold increase in extracellular AK activity)” value in assay [2] (setting [22]) was 1.2. Also, in assay [3] (setting [22]), the “AK-based Prestwick Library Screening Results, S. aureus (fold increase in extracellular AK activity)” value was determined as 1.4. In assay [4] (setting [22]), the “AK-based Prestwick Library Screening Results, P. aeruginosa (fold increase in extracellular AK activity)” value was found to be 1.2. Besides, the “AK-based Prestwick Library Screening Results, K. pneumoniae (fold increase in extracellular AK activity)” value in assay [5] (setting [22]) stood at 1.5. Further, the “AK-based Prestwick Library Screening Results, A. baumannii (fold increase in extracellular AK activity)” value in assay [6] (setting [22]) is on record as 1.3. The “AK-based Prestwick Library Screening Results, E. coli (fold increase in extracellular AK activity)” value in assay [7] ([…]) worked out at 1.4.

Turning to `Cn1cc[nH]c1=S` [Methimazole], the fold induction at 50 µM in assay [1] (setting [15]) came out at 0.9; in assay [2] (setting [16]), 27.1; in assay [3] (setting [17]) it was 1; in assay [4] (setting [18]), 1; in assay [5] (setting [19]) it was 1; in assay [6] (setting [20]) it was 1.4. In assay [7] (setting [21]), the fold induction at 50 µM is 1.2.
